Data: patent US10669238B2, “Irreversible bruton's tyrosine kinase inhibitor” (HEFEI INSTITUTES OF PHYSICAL SCIENCE, CHINESE ACADEMY OF …, priority 2016, dated 2020)

Assays:
Type in all cases: cell-based
[1] = target: T1, TEL-BLK-BaF3 cells (stably expressing TEL-BLK activated kinase) (Homo sapiens, UniProt P51451); assay: Cell proliferation (Cell Titer-Glo), BaF3-tel-BLK; conditions: BaF3-tel-BLK (mouse BaF3 cells), 72 hours; read-out: Effects on cell proliferation (GI50)
T1 construct: expressed in transfected cells; host or cells: mouse BaF3 cells, retroviral MSCV-Puro; the other entry of the earlier key: ETV6 (P41212, Transcription factor ETV6)
T1 sequence (P51451 241-494 limits assumed): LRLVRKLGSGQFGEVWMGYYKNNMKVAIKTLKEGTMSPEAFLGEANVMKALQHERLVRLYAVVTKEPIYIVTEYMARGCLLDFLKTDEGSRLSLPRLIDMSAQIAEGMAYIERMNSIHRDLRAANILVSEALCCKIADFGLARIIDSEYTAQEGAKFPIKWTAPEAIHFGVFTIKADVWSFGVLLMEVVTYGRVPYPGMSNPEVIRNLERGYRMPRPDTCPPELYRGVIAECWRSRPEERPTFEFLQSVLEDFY
Procedure: (§1) The selectivity of Compound 1 in inhibiting the proliferation of cancer cells was further evaluated by testing the effect of Btk inhibitors on the growth of cancer cells. […]
(§2) In this example different concentrations (0.000508 μM, 0.00152 μM, 0.00457 μM, 0.0137 μM, 0.0411 μM, 0.123 μM, 0.370 μM, 1.11 μM, 3.33 μM, 10 μM) of Compound 1 and Compound 6 were respectively added into the above cells which were then cultured for 72 hours. The number of viable cells was determined via quantitative determination of ATP in living cells by using Cell Titer-Glo® (Promega, the USA) Chemical Luminescent Cell Viability Assay kit.

[2] = tested on: acute myeloid leukemia cell lines MOLM13; assay: Cell proliferation (Cell Titer-Glo), MOLM13; conditions: Homo sapiens, MOLM-13; MOLM13, 72 hours; read-out: Effects on cell proliferation (GI50)
Procedure: as §1, §2

[3] = tested on: multiple myeloma cell lines RPM18226; assay: Cell proliferation (Cell Titer-Glo), RPMI8226; conditions: Homo sapiens, RPMI-8226; RPMI8226, 72 hours; read-out: Effects on cell proliferation (GI50)
Procedure: as §1, §2

[4] = tested on: leukemic cells K562; assay: Cell proliferation (Cell Titer-Glo), K562; conditions: Homo sapiens; K562, 72 hours; read-out: Effects on cell proliferation (GI50)
Procedure: as §1, §2

[5] = tested on: diffuse large B-cell lymphoma cell line OCI-LY10; assay: Cell proliferation (Cell Titer-Glo), OCI-LY10; conditions: Homo sapiens; OCI-LY10, 72 hours; read-out: Effects on cell proliferation (GI50)
Procedure: as §1, §2

[6] = tested on: Pfeiffer (human diffuse large cell lymphoma B lymphocytes); assay: Cell cycle distribution by flow cytometry in Pfeiffer; conditions: 10 μM, 48 hours
Procedure: (§3) Effect of Compound 1 on cell cycle distribution was examined respectively in Pfeiffer (human diffuse large cell lymphoma B lymphocytes, purchased from Cobioer Biosciences Co., LTD (Nanjing)) and U2932 (B-cell lymphoma cells, purchased from ATCC) cells in order to study the growth cycle to which the cells were blocked upon compound administration. The above cells were treated with various concentrations (0.5 μM, 1 μM, 5 μM, 10 μM) of Compound 1, 10 μM of PC132765 and 10 μM of Compound 6 (FIG. 4a) or 1 μM of Compound 6 (FIG. 4b) for 48 hours, and then cells were collected and washed twice with 1×PBS buffer, and fixed with 75% ethanol at −20° C. for 24 hours, washed again with 1×PBS buffer twice, followed by addition of 0.5 mL 1×PBS buffer and 0.5 mL of PI dyeing liquor (purchased from BD Bioscience, USA), and then the cells were placed in the dark at 37° C. for dyeing 15 minutes and the cell cycle distribution was detected by flow cytometry (BD FACS Calibur).
(§4) Experiments shown in FIGS. 4a-4b reflected that Compound 1 influenced the cell cycle of both two cell strains.

[7] = tested on: Pfeiffer (human diffuse large cell lymphoma B lymphocytes); assay: Cell apoptosis (PARP and Caspase 3 cleavage) in Pfeiffer; conditions: 48 hours
Procedure: (§5) Various concentrations (0.5 μM, 1 μM, 5 μM, 10 μM) of Compound 1 was administered to Pfeiffer (human diffuse large cell lymphoma B lymphocytes, purchased from Cobioer Biosciences Co., LTD (Nanjing)) and U2932 (B-cell lymphoma cells, purchased from ATCC) in order to confirm whether cell death after the administration was caused by apoptosis or necrosis. After 48 hours, effects of Compound 1 on protein cleavage of the DNA repairase poly(ADP-ribose) polymerase (PARP) and Caspase (cysteinyl aspartate-specific proteinase) 3 that were closely related to cell apoptosis was examined.

[8] = tested on: U2932 (B-cell lymphoma cells); assay: Cell cycle distribution by flow cytometry in U2932; conditions: U2932, 10 μM, 48 hours
Procedure: as §3, §4

[9] = tested on: U2932 (B-cell lymphoma cells); assay: Cell apoptosis (PARP and Caspase 3 cleavage) in U2932
Procedure: as §5

SMILES | GI50 [1] | GI50 [2] | GI50 [3] | GI50 [4] | GI50 [5] | effect on cell cycle [6] | cleavage of DNA repairase poly(ADP-ribose) polymerase (PARP) ([7]; 10 μM) | cell apoptosis [7] | effect on cell cycle [8] | cleavage of DNA repairase poly(ADP-ribose) polymerase (PARP) ([9]; U2932, 10 μM, 48 hours) | cell apoptosis ([9]; U2932, 48 hours)
CCC(=O)Nc1cc(Nc2cc(-c3cccc(NC(=O)c4ccc(C(C)(C)C)cc4)c3C)cn(C)c2=O)ccc1C(=O)N1CCOCC1 [Compound 6, N-(3-(5-((3-propanamide-4-(morpholin-4-carbonyl)phenyl)amino)-1-methyl-6-oxo-1,6-dihydropyridin-3-yl)-2-methylphenyl)-4-(tert-butyl)benzamide] | 5.4 µM | 4 µM | 4.7 µM | > 10 µM | 3 to 10 µM |  |  |  |  |  | 
C=CC(=O)Nc1cc(Nc2cc(-c3cccc(NC(=O)c4ccc(C(C)(C)C)cc4)c3C)cn(C)c2=O)ccc1C(=O)N1CCOCC1 [Compound 1, N-(3-(5-((3-acrylamide-4-(morpholin-4-carbonyl)phenyl)amino)-1-methyl-6-oxo-1,6-dihydropyridin-3-yl)-2-methylphenyl)-4-(tert-butyl)benzamide] | 4.7 µM | 2.2 µM | 2.9 µM | 4.2 µM | 3.4 µM | significant cell cycle arrest in G0-G1 | significant cleavage | could lead to cell apoptosis | significant cell cycle arrest in G0-G1 | significant cleavage | could lead to cell apoptosis
